# Laboratory results reported in article PMC3667588 (Journal of pharmacological and toxicological methods, 2012).
# Values joined by “and” are separate entries in the source; they are usually repeats but may differ in a detail not shown here. Equal entries are not always repeated. Where two headings read alike, the source gives them in different places.
# Columns and labels:
# [1] = system: hiPSC-derived cardiomyocytes; experiment: KIC spontaneous calcium transients in hiPSC-derived cardiomyocytes; format: cell-based, human; details: for EC50 Decay (in words) / EC50 FWHM (in words) / EC50 Rise Time (in words) / EC50 T75-25 (in words): N.S., not significant vs vehicle by ANOVA/Dunnett; for Effect on spontaneous calcium transient (in words): dose-response
# [2] = system: L-type Ca^2+ channel; details: CR-mc; ref Ogawa, et al., 1992; cited from earlier work
# [3] = system: hiPSC-CMs; format: cell-based, human; details: for Effect on paced [Ca^2+]i transients at 1 µM / Effect on paced [Ca^2+]i transients at 10 µM: 1 Hz pacing; for Effect on paced [Ca^2+]i transients at 0.1 µM: 4 stimulations at 1 Hz
# [4] = system: hERG; details: cited from earlier work; for Reported EC50/IC50: PC-cc, et al.
# [5] = system: Na^+ channel; details: PC-Xl; ref Ramos & O'Leary, 2004; cited from earlier work
# [6] = system: KATP channel; details: TM-ec; ref Houjou, et al., 1996; cited from earlier work
# [7] = system: hERG K^+ channel; details: PC-Xl; ref Hansen, et al., 2006; cited from earlier work
# [8] = system: NRVMs; experiment: KIC Ca2+ transient analysis in neonatal rat ventricular myocytes; format: cell-based; details: for FWHM / T75-25 / TDecay / TRise: NRVMs treated three days with 100 nM T3, Ca2+ transient
# [9] = system: NRVMs; experiment: KIC calcium transients in T3-treated NRVMs paced at 2 Hz; format: cell-based, rat; details: NRVMs after T3 treatment, 100 µM, 12 seconds recording
# [10] = read-out: EC50 Decay, spontaneous calcium transients, hiPSC-CMs
# [11] = read-out: EC50 FWHM, spontaneous calcium transients, hiPSC-CMs
# [12] = read-out: EC50 Rise Time, spontaneous calcium transients, hiPSC-CMs
# [13] = read-out: EC50 T75-25, spontaneous calcium transients, hiPSC-CMs
# [14] = Homo sapiens, Cardiomyocyte, read-out: EC50 Decay
# [15] = Homo sapiens, Cardiomyocyte, read-out: EC50 FWHM
# [16] = Homo sapiens, Cardiomyocyte, read-out: EC50 Rise Time
# [17] = Homo sapiens, Cardiomyocyte, read-out: EC50 T75-25
# [18] = Average CTR minus average T3 (100 nM, three days)
smiles,measurement,setting,value
CC(=O)Oc1ccccc1C(=O)O [Aspirin],EC50 Decay (in words),[1],N.S.
same,EC50 FWHM (in words),[1],N.S.
same,EC50 Rise Time (in words),[1],N.S.
same,EC50 T75-25 (in words),[1],N.S.
same,Effect on spontaneous calcium transient (in words),[1]; hiPSC-CMs,minimal effect only at the highest concentrations
COC(=O)C1=C(C)NC(C)=C([N+](=O)[O-])C1c1ccccc1C(F)(F)F (stereo not drawn) [Bay K 8644],Effect on spontaneous calcium transient (in words),[1]; hiPSC-CMs,increased the transient amplitude and prolonged its duration
same,EC50,[1]; [10],0.00638 µM
same,EC50,[1]; [11],0.011 µM
same,EC50,[1]; [12],1.3 µM
same,EC50,[1]; [13],0.00548 µM
same,Reported EC50/IC50,[2],10–100 nM CR-mc
COc1cc(N)c(Cl)cc1C(=O)NC1CCN(CCCOc2ccc(F)cc2)CC1OC (stereo not drawn) [Cisapride],EC50,[1]; [14],0.147 µM
same,EC50,[1]; [15],0.149 µM
same,EC50,[1]; [16],0.154 µM
same,EC50 T75-25 (in words),[1],N.S
same,Effect on spontaneous calcium transient at 10 nM,"[1]; hiPSC-CMs, 10 nM",prolonged the calcium transient
same,Effect on spontaneous calcium transient at 100 nM,"[1]; hiPSC-CMs, 100 nM",reduction in the intensity of the transient and prolongation of the late phase of the decay
same,Effect on spontaneous calcium transient at higher concentrations,"[1]; hiPSC-CMs, concentrations above 100 nM",completely inhibited the occurrence of spontaneous transients
same,Effect on paced [Ca^2+]i transients at 1 µM,[3],almost fused and the maxima were reduced to about half of the initial peak
same,Effect on paced [Ca^2+]i transients at 10 µM,[3],narrowed and follow-on maxima were decreased
same,Effect on paced [Ca^2+]i transients at 0.1 µM,[3],anomalous [Ca^2+]i kinetics
same,Reported EC50/IC50,"[4]; ref Mohammad, 1997, Potet, 2001, Toga, 2007",6.5–240 nM PC-cc
CN(CCOc1ccc(NS(C)(=O)=O)cc1)CCc1ccc(NS(C)(=O)=O)cc1 [Dofetilide],EC50,[1]; [14],0.00075 µM
same,EC50,[1]; [17],0.00587 µM
same,EC50 FWHM (in words),[1],N.S
same,EC50 Rise Time (in words),[1],N.S.
Cc1cccc(CCN2CCC(C(=O)c3ccc(NS(C)(=O)=O)cc3)CC2)n1 [E-4031],EC50,[1]; [10],0.0457 µM
same,EC50,[1]; [11],0.0441 µM
same,EC50,[1]; [12],0.0386 µM
same,EC50,[1]; [13],0.0822 µM
O=C(NCC1CCCCN1)c1cc(OCC(F)(F)F)ccc1OCC(F)(F)F (stereo not drawn) [Flecainide],EC50,[1]; [14],1.01 µM
same,EC50,[1]; [16],9.67 µM
same,EC50,[1]; [17],1.13 µM
same,EC50 FWHM (in words),[1],N.S.
same,Reported EC50/IC50,[5],7.4 µM PC-Xl
CC1(C)Oc2ccc(C#N)cc2[C@@H](N2CCCC2=O)[C@@H]1O [Levcromakalim],EC50,[1]; [14],5.28 µM
same,EC50,[1]; [15],9.16 µM
same,EC50,[1]; [16],3.72 µM
same,EC50,[1]; [17],3.07 µM
same,Reported EC50/IC50,[6],1.73 µM TM-ec
CCOc1cc(N)c(Cl)cc1C(=O)NCC1CN(Cc2ccc(F)cc2)CCO1 (stereo not drawn) [Mosapride],EC50 Decay (in words),[1],N.S.
same,EC50 FWHM (in words),[1],N.S.
same,EC50 Rise Time (in words),[1],N.S.
same,EC50 T75-25 (in words),[1],N.S.
same,Effect on spontaneous calcium transient (in words),[1]; hiPSC-CMs,did not induce statistically significant changes
same,Effect on spontaneous calcium transient (in words),"[1]; hiPSC-CMs, listed as mosapride",minimal effect only at the highest concentrations
same,Effect on paced [Ca^2+]i transients at 1 µM,[3],no discernible differences
same,Effect on paced [Ca^2+]i transients at 10 µM,[3],pattern similar to 0.1 µM cisapride
same,Effect on paced [Ca^2+]i transients at 0.1 µM,[3],no discernible differences
same,Affinity for hERG relative to cisapride,"[4]; ref Toga, Kohmura, & Kawatsu, 2007",three orders of magnitude less affinity for hERG
"O=C(Nc1cc(C(F)(F)F)ccc1O)Nc1cc(C(F)(F)F)ccc1O [NS1463, 1,3-Bis-(2-hydroxy-5-trifluoromethyl-phenyl)-urea]",EC50,[1]; [14],2.54 µM
same,EC50,[1]; [15],7 µM
same,EC50,[1]; [16],3.89 µM
same,EC50,[1]; [17],2.33 µM
same,Reported EC50/IC50,[7],10.5µM PC-Xl
CC(C)NCC(O)c1ccc(NS(C)(=O)=O)cc1 (stereo not drawn) [Sotalol],EC50,[1]; [14],85.7 µM
same,EC50,[1]; [15],86.3 µM
same,EC50,[1]; [16],89.1 µM
same,EC50 T75-25 (in words),[1],None
same,Reported EC50/IC50,"[4]; ref Peng, 2010",268µM PC-cc
"N[C@@H](Cc1cc(I)c(Oc2ccc(O)c(I)c2)c(I)c1)C(=O)O [T3, Triiodothyronine]","Difference in ms, FWHM",[8]; [18],311 ms
same,"Difference in ms, T75-25",[8]; [18],215 ms
same,"Difference in ms, TDecay",[8]; [18],190 ms
same,"Difference in ms, TRise",[8]; [18],119 ms
same,FWHM,[8],567 ± 9 ms
same,T75-25,[8],439 ± 44 ms
same,TDecay,[8],462 ± 15 ms
same,TRise,[8],104 ms and 104 ± 14 ms
same,FWHM,[8]; listed as T3-1,567 ms
same,T75-25,[8]; listed as T3-1,390 ms
same,TDecay,[8]; listed as T3-1,447 ms
same,TRise,[8]; listed as T3-1,120 ms
same,FWHM,[8]; listed as T3-2,558 ms
same,T75-25,[8]; listed as T3-2,450 ms
same,TDecay,[8]; listed as T3-2,462 ms
same,TRise,[8]; listed as T3-2,96 ms
same,FWHM,[8]; listed as T3-3,576 ms
same,T75-25,[8]; listed as T3-3,477 ms
same,TDecay,[8]; listed as T3-3,477 ms
same,Reduction of FWHM,[8]; T3 vs control NRVMs,35%
same,Reduction of T75-25,[8]; T3 vs control NRVMs,33%
same,Reduction of TDecay,[8]; T3 vs control NRVMs,29%
same,Reduction of TRise,[8]; T3 vs control NRVMs,53%
COc1ccc(CCN(C)CCCC(C#N)(c2ccc(OC)c(OC)c2)C(C)C)cc1OC (stereo not drawn) [Verapamil],EC50,[1]; [14],0.17 µM
same,EC50,[1]; [15],0.26 µM
same,EC50,[1]; [16],0.46 µM
same,EC50,[1]; [17],0.39 µM
same,Effect on spontaneous calcium transient (in words),[1]; hiPSC-CMs,dose-dependent reduction in the intensity and duration of the calcium transient
same,Effect on spontaneous calcium transient (in words),"[1]; hiPSC-CMs, listed as verapamil",completely blocked the Ca^2+ transient
C[C@@H]1CN(c2c(F)c(N)c3c(=O)c(C(=O)O)cn(C4CC4)c3c2F)C[C@H](C)N1 [sparfloxacin],Effect on paced calcium transients,[9],highly asynchronous calcium transients
